This assay addresses T1, Human Factor D (Homo sapiens, UniProt P00746).
T1 construct: purified from human serum; purchased Complement Technology, Inc; host or cells: human serum (natural protein, not recombinant)
In words: Human Factor D Assay. The assay is classed as biochemical. As for the experimental part:
Human Factor D (purified from human serum, Complement Technology, Inc.) at 80 nM final concentration is incubated with test compound at various concentrations for 5 minutes at room temperature in 50 mM Tris, 1M NaCl, pH 7.5. A synthetic substrate Z-L-Lys-SBzl and DTNB (Ellman's reagent) are added to final concentrations of 100 μM each. Absorbance at 405 nm (A405) is recorded at 30 second intervals for 30 minutes using a microplate spectrophotometer. IC50 values are calculated by nonlinear regression of complement Factor D reaction rates as a function of test compound concentration.

The mark [1] stands for this setting: Table 3, factor D inhibition assay, read-out: IC50 (Stars).
Where [2] appears, read: Table 1, Factor D 80 nM, substrate Z-L-Lys-SBzl, read-out: IC50.

Like-named read-outs stand apart in the source and are kept apart here. A value given as a limit tells only on which side of the number the result lay.

T1 sequence (P00746 26-253): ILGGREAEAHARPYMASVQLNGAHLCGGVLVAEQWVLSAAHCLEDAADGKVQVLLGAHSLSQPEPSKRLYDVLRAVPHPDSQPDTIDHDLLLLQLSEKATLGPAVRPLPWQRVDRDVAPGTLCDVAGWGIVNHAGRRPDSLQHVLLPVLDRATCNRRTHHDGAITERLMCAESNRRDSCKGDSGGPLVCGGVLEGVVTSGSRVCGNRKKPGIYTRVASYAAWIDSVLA

In general, IC50 refers to the midpoint of a concentration-inhibition curve. Consider `CC(=O)c1cn(CC(=O)N2CC[C@H]2C(=O)Nc2cccc(C)n2)c2ccc(NC(=O)N3CCCC(F)(F)C3)cc12` [Compound 205, (S)-N-(3-acetyl-1-(2-(2-((6-methylpyridin-2-yl)-carbamoyl)-azetidin-1-yl)-2-oxoethyl)-1H-indol-5-yl)-3,3-difluoropiperidine-1-carboxamide], for which the IC50 under setting [1] is greater than 10 µM.

On to `CC(=O)c1cn(CC(=O)N2C[C@H](F)C[C@H]2C(=O)NCc2cccc(Cl)c2F)c2ccc(NC(=O)NCc3ncccn3)cc12` [Compound 8, (2S,4R)-1-(2-(3-acetyl-5-(3-(pyrimidin-2-ylmethyl)ureido)-1H-indol-1-yl)acetyl)-N-(3-chloro-2-fluorobenzyl)-4-fluoropyrrolidine-2-carboxamide], for which, under setting [2], the half-inhibitory concentration (IC50) is less than 1 µM.

With `CC(=O)c1cn(CC(=O)N2C[C@H](F)C[C@H]2C(=O)NCCCc2ccccc2)c2ccc(NC(=O)N3CCCC(F)(F)C3)cc12` [Compound 198, N-(3-acetyl-1-(2-((2S,4R)-4-fluoro-2-((3-phenylpropyl)carbamoyl)pyrrolidin-1-yl)-2-oxoethyl)-1H-indol-5-yl)-3,3-difluoropiperidine-1-carboxamide], under setting [1], the IC50 is less than 1 µM.

Consider `CC(=O)c1cn(CC(=O)N2C[C@H](F)C[C@H]2C(=O)Nc2cccc(OC(F)(F)F)c2F)c2ccc(NC(=O)NC3CC3)cc12` [Compound 10, (2S,4R)-1-(2-(3-acetyl-5-(3-cyclopropylureido)-1H-indol-1-yl)acetyl)-4-fluoro-N-(2-fluoro-3-(trifluoromethoxy)phenyl)pyrrolidine-2-carboxamide], for which the IC50 under setting [2] is less than 1 µM.

In the case of `CC(=O)c1cn(CC(=O)N2C[C@H](F)C[C@H]2C(=O)NCc2cccc(Cl)c2F)c2ccc(NC(=O)NCc3nn[nH]n3)cc12` [Compound 2, (2S,4R)-1-(2-(5-(3-((2H-tetrazol-5-yl)methyl)ureido)-3-acetyl-1H-indol-1-yl)acetyl)-N-(3-chloro-2-fluorobenzyl)-4-fluoropyrrolidine-2-carboxamide], the IC50 under setting [2] is less than 1 µM.

Consider `CC(=O)c1cn(CC(=O)N2C[C@H](F)C[C@H]2C(=O)NCc2cccc(Cl)c2F)c2ccc(NC(=O)NC(C)C)cc12` [Compound 6, (2S,4R)-1-(2-(3-acetyl-5-(3-isopropylureido)-1H-indol-1-yl)acetyl)-N-(3-chloro-2-fluorobenzyl)-4-fluoropyrrolidine-2-carboxamide], for which, under setting [2], the IC50 is less than 1 µM.

Consider `CC(=O)c1cn(CC(=O)N2C[C@H](F)C[C@H]2C(=O)NCc2cccc(Cl)c2F)c2ccc(NC(=O)N3CCCC3)cc12` [Compound 9, N-(3-acetyl-1-(2-((2S,4R)-2-(3-chloro-2-fluorobenzylcarbamoyl)-4-fluloropyrrolidin-1-yl)-2-oxoethyl)-1H-indol-5-yl)pyrrolidine-1-carboxamide], for which the IC50 under setting [2] is less than 1 µM.

`NC(=O)c1nn(CC(=O)N2C[C@H](F)C[C@H]2C(=O)Nc2cccc(OC(F)(F)F)c2F)c2ccc(NC(=O)Nc3ccon3)cc12` [Compound 25, 1-(2-((2S,4R)-4-fluoro-2-(2-fluoro-3-(trifluoromethoxy)phenylcarbamoyl)pyrrolidin-1-yl)-2-oxoethyl)-5-(3-isoxazol-3-ylureido)-1H-indazole-3-carboxamide]: the IC50 under setting [2] is less than 1 µM.

Take `NC(=O)c1nn(CC(=O)N2C[C@H](F)C[C@H]2C(=O)Nc2cccc(-c3ccccc3Cl)c2F)c2cc(C(=O)NS(=O)(=O)C3CC3)ccc12` [Compound 54]: the 50% inhibitory concentration (IC50) under setting [2] is less than 1 µM.

As for `CC(=O)c1cn(CC(=O)N2C[C@H](F)C[C@H]2C(=O)Nc2cccc(-c3ccccc3Cl)c2F)c2ccc(NC(=O)N3CCCC(F)(F)C3)cc12` [Compound 18, N-(3-acetyl-1-(2-((2S,4R)-2-(2′-chloro-2-fluorobiphenyl-3-ylcarbamoyl)-4-fluoropyrrolidin-1-yl)-2-oxoethyl)-1H-indol-5-yl)-3,3-difluoropiperidine-1-carboxamide], the IC50 under setting [2] was less than 1 µM.

Regarding `CC(=O)c1cn(CC(=O)N2C[C@H](F)C[C@H]2C(=O)NCc2cccc(Cl)c2F)c2cc(C(=O)N3CCC(C(=O)O)C3)ccc12` (stereo partly drawn) [Compound 52, 1-(3-acetyl-1-(2-((2S,4R)-2-(3-chloro-2-fluorobenzylcarbamoyl)-4-fluoropyrrolidin-1-yl)-2-oxoethyl)-1H-indole-6-carbonyl)pyrrolidine-3-carboxylic acid], the IC50 under setting [2] was less than 1 µM.

As for `NC(=O)c1nn(CC(=O)N2C[C@H](F)C[C@H]2C(=O)Nc2cccc(-c3ccccc3Cl)c2F)c2ccc(NC(=O)N3CCC(F)(F)C3)cc12` [Compound 30, 1-(2-((2S,4R)-2-(2′-chloro-2-fluorobiphenyl-3-ylcarbamoyl)-4-fluoropyrrolidin-1-yl)-2-oxoethyl)-5-(3,3-difluoropyrrolidine-1-carboxamido)-1H-indazole-3-carboxamide], under setting [2], the IC50 was less than 1 µM.

`CC(=O)c1cn(CC(=O)N2C[C@H](F)C[C@H]2C(=O)NCCc2ccccc2)c2ccc(C(=O)NS(=O)(=O)C3CC3)cc12` [Compound 185, 3-acetyl-N-(cyclopropylsulfonyl)-1-(2-((2S,4R)-4-fluoro-2-(phenethylcarbamoyl)pyrrolidin-1-yl)-2-oxoethyl)-1H-indole-5-carboxamide]: the IC50 under setting [1] is greater than 10 µM.

Take `NC(=O)c1nn(CC(=O)N2C[C@H](F)C[C@H]2C(=O)Nc2cccc(Br)n2)c2ccc(NC(=O)N3CCCC(F)(F)C3)cc12` [Compound 33, 1-(2-((2S,4R)-2-(6-bromopyridin-2-ylcarbamoyl)-4-fluoropyrrolidin-1-yl)-2-oxoethyl)-5-(3,3-difluoropiperidine-1-carboxamido)-1H-indazole-3-carboxamide]: the IC50 under setting [2] was less than 1 µM.

With `CC(=O)c1cn(CC(=O)N2C[C@H](F)C[C@H]2C(=O)NCc2cccc(Cl)c2F)c2cc(C(=O)N[C@H]3CCNC3)ccc12` [Compound 45, 3-acetyl-1-(2-((2S,4R)-2-(3-chloro-2-fluorobenzyl-carbamoyl)-4-fluoropyrrolidin-1-yl)-2-oxoethyl)-N-((S)-pyrrolidin-3-yl)-1H-indole-6-carboxamide], the 50% inhibitory concentration (IC50) under setting [2] is less than 1 µM.

As to `NC(=O)c1nn(CC(=O)N2C[C@H](F)C[C@H]2C(=O)Nc2cccc(-c3ccccc3Cl)c2F)c2ccc(NC(=O)N3CCC(F)(F)CC3)cc12` [Compound 31, 1-(2-((2S,4R)-2-(2′-chloro-2-fluorobiphenyl-3-ylcarbamoyl)-4-fluoropyrrolidin-1-yl)-2-oxoethyl)-5-(4,4-difluoropiperidine-1-carboxamido)-1H-indazole-3-carboxamide], the 50% inhibitory concentration (IC50) under setting [2] is less than 1 µM.

In the case of `NC(=O)c1nn(CC(=O)N2[C@@H]3C[C@@H]3C[C@H]2C(=O)Nc2cccc(OC(F)(F)F)c2F)c2ccc(NC(=O)N3CCCC(F)(F)C3)cc12` [Compound 27, 5-(3,3-difluoropiperidine-1-carboxamido)-1-(2-((1R,3S,5R)-3-(2-fluoro-3-(trifluoromethoxy)phenylcarbamoyl)-2-azabicylco[3.1.0]hexan-2-yl)-2-oxoethyl)-1H-indazole-3-carboxamide], the IC50 under setting [2] was less than 1 µM.

Take `CC(=O)c1cn(CC(=O)N2C[C@H](F)C[C@H]2C(=O)NCCCCc2ccccc2)c2ccc(C(=O)NS(=O)(=O)C3CC3)cc12` [Compound 195, 3-acetyl-N-(cyclopropylsulfonyl)-1-(2-((2S,4R)-4-fluoro-2-((4-phenylbutyl)carbamoyl)pyrrolidin-1-yl)-2-oxoethyl)-1H-indole-5-carboxamide]: the IC50 under setting [1] was greater than 10 µM.

`CC(=O)c1cn(CC(=O)N2C[C@H](F)C[C@H]2C(=O)NCCCCc2ccccc2)c2ccc(NC(=O)N3CCCC(F)(F)C3)cc12` [Compound 199, N-(3-acetyl-1-(2-((2S,4R)-4-fluoro-2-((4-phenylbutyl)carbamoyl)pyrrolidin-1-yl)-2-oxoethyl)-1H-indol-5-yl)-3,3-difluoropiperidine-1-carboxamide]: the IC50 under setting [1] was less than 1 µM.

Turning to `CC(=O)c1cn(CC(=O)N2[C@@H]3C[C@@H]3C[C@H]2C(=O)N[C@H](C)c2cccc(Cl)c2F)c2ccc(NC(=O)NC3CC3)cc12` [Compound 5, (1R,3S,5R)-2-(2-(3-acetyl-5-(3-cyclopropylureido)-1H-indol-1-yl)acetyl)-N-((R)-1-(3-chloro-2-fluorophenyl)ethyl)-2-azabicyclo[3.1.0] hexane-3-carboxamide], the IC50 under setting [2] was less than 1 µM.

Consider `CC(=O)c1cn(CC(=O)N2C[C@H](F)C[C@H]2CCNS(=O)(=O)c2ccccc2)c2ccc(C(=O)NS(=O)(=O)C3CC3)cc12` [Compound 174, 3-acetyl-N-(cyclopropylsulfonyl)-1-(2-((2R,4R)-4-fluoro-2-(2-(phenylsulfonylamido)ethyl)pyrrolidin-1-yl)-2-oxoethyl)-1H-indole-5-carboxamide], for which, under setting [1], the IC50 is greater than 10 µM.

As to `CC(=O)c1cn(CC(=O)N2C[C@H](F)C[C@H]2C(=O)NCCc2ccccc2)c2ccc(NC(=O)N3CCCC(F)(F)C3)cc12` [Compound 197, N-(3-acetyl-1-(2-((2S,4R)-4-fluoro-2-(phenethylcarbamoyl)pyrrolidin-1-yl)-2-oxoethyl)-1H-indol-5-yl)-3,3-difluoropiperidine-1-carboxamide], under setting [1], the IC50 was less than 1 µM.

Turning to `CC(=O)c1cn(CC(=O)N2C[C@H](F)C[C@H]2C(=O)NCc2cccc(Cl)c2F)c2cc(C(=O)N[C@H]3CCN(C(C)=O)C3)ccc12` [Compound 46, 3-acetyl-N-((S)-1-acetylpyrrolidin-3-yl)-1-(2-((2S,4R)-2-(3-chloro-2-fluorobenzylcarbamoyl)-4-fluoropyrrolidin-1-yl)-2-oxoethyl)-1H-indole-6-carboxamide], the half-inhibitory concentration (IC50) under setting [2] was less than 1 µM.

On to `NC(=O)c1nn(CC(=O)N2C[C@H](F)C[C@H]2C(=O)Nc2cccc(-c3ccccc3Cl)c2F)c2ccc(NC(=O)NCc3ncccn3)cc12` [Compound 32, 1-(2-((2S,4R)-2-(2′-chloro-2-fluorobiphenyl-3-ylcarbamoyl)-4-fluoropyrrolidin-1-yl)-2-oxoethyl)-5-(3-(pyrimidin-2-ylmethyl)ureido)-1H-indazole-3-carboxamide], for which, under setting [2], the IC50 was less than 1 µM.

The record behind these values is US10138225B2 (Achillion Pharmaceuticals, Inc., priority 2015, dated 2018).
